Assay results as given in patent US7432276B2, “ABCA1 elevating compounds” (CV Therapeutics, Inc., priority 2005, dated 2008).

Tested on: ABCA1 mRNA
Test: ABCA1 mRNA induction in THP-1 cells, QuantiGene branched DNA assay
Format: cell-based
Details: 10 μM test compound, 18-20 hours
Outline: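 THP-1 cells, grown to subconfluence, treated with compounds at 10 and 3 μM in DMEM/BSA for 18–20 h. Lysates hybridized with ABCA1-specific probe 16–18 h at 53 °C; QuantiGene branched DNA luminescence gives fold increase over DMSO.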

Row | SMILES | ABCA1 Induction Fold Increase over DMSO Vehicle [FOLD INCREASE]
1 | COc1cc(Br)cc2c1OC[C@H]1[C@H]2Nc2ccc(C(O)(C(F)(F)F)C(F)(F)F)cc2C1(C)C [Number 66, 2-((12aR,6aR)-2-bromo-4-methoxy-7,7-dimethyl(7,12,12a,6a-tetrahydrochromano[4,3-b]quinolin-9-yl))-1,1,1,3,3,3-hexafluoropropan-2-ol] | 2.5
2 | Cc1cc(Cl)cc2c1OCC1C2Nc2ccc(C(O)(C(F)(F)F)C(F)(F)F)cc2C1(C)C (stereo not drawn) [Number 69, 2-(2-chloro-4,7,7-trimethyl(7,12,12a,6a-tetrahydrochromano[4,3-b]quinolin-9-yl))-1,1,1,3,3,3-hexafluoropropan-2-ol] | 2.6
3 | COC(=O)c1cc2c(cc1OC)NC1c3cc(Br)ccc3OCC1C2(C)C (stereo not drawn) [Number 6, methyl 2-bromo-10-methoxy-7,7-dimethyl-7,12,12a,6a-tetrahydrochromano[4,3-b]quinoline-9-carboxylate] | 1.6
4 | COc1cccc2c1OC[C@@H]1[C@H]2Nc2ccc(N3CCS(=O)(=O)CC3)cc2C1(C)C [Number 20, 4-((6aS,12aR)-4-methoxy-7,7-dimethyl-7,12,12a,6a-tetrahydrochromano[4,3-b]quinolin-9-yl)-1,4-thiazaperhydroine-1,1-dione] | 6.5
5 | COc1cccc2c1[C@H]1Nc3ccc(-c4csc(C)n4)cc3C(C)(C)[C@H]1CO2 [Number 110, (12aS,6aR)-1-methoxy-7,7-dimethyl-9-(2-methyl(1,3-thiazol-4-yl))-7,12,12a,6a-tetrahydrochromano[4,3-b]quinoline] | 6.0
6 | CC1(C)c2cc(C(N)=O)ccc2NC2c3cc(Br)ccc3OCC21 (stereo not drawn) [Number 5, 2-bromo-7,7-dimethyl-7,12,12a,6a-tetrahydrochromano[4,3-b]quinoline-9-carboxamide] | 3.5
7 | COc1cccc2c1OCC1C2Nc2ccc(-c3cccc(C(=O)OC(C)C)c3)cc2C1(C)C (stereo not drawn) [Number 60, methylethyl 3-(4-methoxy-7,7-dimethyl-7,12,12a,6a-tetrahydrochromano[4,3-b]quinolin-9-yl)benzoate] | 4.4
8 | CC(C)=CCOC(=O)c1ccc2c(c1)C1Nc3ccc(C(O)(C(F)(F)F)C(F)(F)F)cc3C(C)(C)C1CO2 (stereo not drawn) [Number 13, 3-methylbut-2-enyl 7,7-dimethyl-9-[2,2,2-trifluoro-1-hydroxy-1-(trifluoromethyl)ethyl]-7,12,12a,6a-tetrahydrochromano[4,3-b]quinoline-2-carboxylate] | 3.4

Same assay, conditions: Homo sapiens, 10 μM test compound, 18-20 hours, read-out: ABCA1 Induction Fold Increase over DMSO Vehicle

Row | SMILES | fold induction at 10 µM
9 | COc1cccc2c1OC[C@H]1[C@@H]2Nc2ccc(C(=O)N3CCOCC3)cc2C1(C)C [Number 119, ((6aR,12aS)-6a,7,12,12a-tetrahydro-4-methoxy-7,7-dimethyl-6H-chromeno[4,3-b]quinolin-9-yl)(morpholino)methanone] | 7.5
10 | CCN1c2ccccc2C(C)(C)[C@@H]2COc3cccc(OC)c3[C@H]21 [Number 163, (6aS,12aS)-12-ethyl-6a,7,12,12a-tetrahydro-1-methoxy-7,7-dimethyl-6H-chromeno[4,3-b]quinoline] | 3.1
11 | COc1cc(Br)cc2c1OC[C@@H]1[C@@H]2Nc2ccc(-c3cnco3)cc2C1(C)C [Number 150, (6aS,12aS)-2-bromo-6a,7,12,12a-tetrahydro-4-methoxy-7,7-dimethyl-9-(oxazol-5-yl)-6H-chromeno[4,3-b]quinoline] | 12.5
12 | COc1cccc2c1OC[C@H]1[C@@H]2Nc2ccc(-c3ccc(F)cc3)cc2C1(C)C [Number 99, (12aS,6aR)-9-(4-fluorophenyl)-4-methoxy-7,7-dimethyl-7,12,12a,6a-tetrahydrochromano[4,3-b]quinoline] | 1.7
